21 compounds from ChEMBL document CHEMBL1140493, “Quantitative structure-activity relationship studies for prediction of antimicrobial activity of synthesized 2,4-hexadienoic acid derivatives” (Bioorg Med Chem Lett, 2007) can be followed below.

In brackets after ≈: the same amount, converted by molar mass.

The test system of one data set is Escherichia coli. In words: Antimicrobial activity against Escherichia coli after 24 hrs by twofold serial dilution method. The class given is functional. To be noted: read-out: -Log MIC.
A further data set has as its system Candida albicans. In words: Antifungal activity against Candida albicans after 2 days by twofold serial dilution method. The class given is functional. To be noted: 48 h, read-out: -Log MIC.
In a further data set the test system is Aspergillus niger. In words: Antifungal activity against Aspergillus niger after 7 days by twofold serial dilution method. It counts as functional. To be noted: 168 h, read-out: -Log MIC.
Another data set deals with Staphylococcus aureus. In words: Antimicrobial activity against Staphylococcus aureus after 24 hrs by twofold serial dilution method. To be noted: read-out: -Log MIC. The class given is functional.
The next data set deals with Bacillus subtilis. The data set is described as follows: Antimicrobial activity against Bacillus subtilis after 24 hrs by twofold serial dilution method. It counts as functional. As to conditions: read-out: -Log MIC.
The nature of data set [1]: Partition coefficient, log P of the compound. As to conditions: octanol/water.

By MIC is commonly meant the smallest concentration in the dilution series that meets the test's criterion for growth inhibition. What is called logP is the decadic logarithm of the partition coefficient of the neutral form, usually between octanol and water. A high value points to a more lipophilic compound. Turning to `C/C=C/C=C/C(=O)OCCC(C)C`, the MIC with Escherichia coli was found to be 100 µM (≈ 18.2 µg/mL); in the data set with Candida albicans, 69.2 µM (≈ 12.6 µg/mL); in the data set with Aspergillus niger it was 69.2 µM (≈ 12.6 µg/mL); in the data set with Staphylococcus aureus, 63.1 µM (≈ 11.5 µg/mL); with Bacillus subtilis, 55 µM (≈ 10 µg/mL). Further, the logP in data set [1] was determined as 3.04.
As for `C/C=C/C=C/C(=O)Nc1cccc(O)c1`, the MIC came out at 100 µM (≈ 20.3 µg/mL) in the data set on Escherichia coli; 53.7 µM (≈ 10.9 µg/mL) in the data set on Candida albicans; 69.2 µM (≈ 14.1 µg/mL) in the data set with Aspergillus niger; 89.1 µM (≈ 18.1 µg/mL) with Staphylococcus aureus; 53.7 µM (≈ 10.9 µg/mL) in the data set with Bacillus subtilis. Moreover, the log partition coefficient (logP) in data set [1] came to 2.25.
Take `C/C=C/C=C/C(=O)OC` [METHYL SORBATE]: the MIC was 79.4 µM (≈ 10 µg/mL) in the data set with Candida albicans, 100 µM (≈ 12.6 µg/mL) in the data set on Aspergillus niger, 100 µM (≈ 12.6 µg/mL) in the data set with Staphylococcus aureus and 79.4 µM (≈ 10 µg/mL) with Bacillus subtilis. In addition, in data set [1], the logP stood at 1.5.
Regarding `C/C=C/C=C/C(=O)OC(C)(C)C`, the MIC with Escherichia coli amounted to 83.2 µM (≈ 14 µg/mL); in the data set on Candida albicans, 53.7 µM (≈ 9.03 µg/mL); in the data set with Aspergillus niger it was 74.1 µM (≈ 12.5 µg/mL); in the data set with Staphylococcus aureus it was 74.1 µM (≈ 12.5 µg/mL); in the data set on Bacillus subtilis, 50.1 µM (≈ 8.43 µg/mL). In data set [1], the lipophilicity (logP) amounted to 2.33.
Take `C/C=C/C=C/C(=O)Nc1ccc(OC)cc1`: the MIC in the data set on Escherichia coli worked out at 64.6 µM (≈ 14 µg/mL); in the data set with Candida albicans, 50.1 µM (≈ 10.9 µg/mL); in the data set on Aspergillus niger it was 44.7 µM (≈ 9.71 µg/mL); with Staphylococcus aureus, 64.6 µM (≈ 14 µg/mL); in the data set with Bacillus subtilis, 45.7 µM (≈ 9.93 µg/mL). In data set [1], this compound had a log partition coefficient (logP) of 2.28.
`C/C=C/C=C/C(=O)Nc1ccccc1OC`: the minimal inhibitory concentration (MIC) with Escherichia coli turned out to be 79.4 µM (≈ 17.3 µg/mL); in the data set on Candida albicans it was 50.1 µM (≈ 10.9 µg/mL); with Aspergillus niger it was 63.1 µM (≈ 13.7 µg/mL); in the data set on Staphylococcus aureus, 63.1 µM (≈ 13.7 µg/mL); with Bacillus subtilis it was 57.5 µM (≈ 12.5 µg/mL). For the same compound, in data set [1], the logP was 2.28.
`C/C=C/C=C/C(=O)Oc1cccc2cccnc12`: the MIC came to 12.9 µM (≈ 3.09 µg/mL) in the data set with Escherichia coli; 52.5 µM (≈ 12.6 µg/mL) in the data set with Candida albicans; 38 µM (≈ 9.09 µg/mL) with Aspergillus niger; 12.9 µM (≈ 3.09 µg/mL) in the data set on Staphylococcus aureus; 12.9 µM (≈ 3.09 µg/mL) in the data set on Bacillus subtilis. In data set [1], the logP came to 3.27.
In the case of `C/C=C/C=C/C(=O)Nc1ccccc1Cl`, the minimum inhibitory concentration (MIC) in the data set on Escherichia coli came out at 81.3 µM (≈ 18 µg/mL); in the data set on Candida albicans, 56.2 µM (≈ 12.5 µg/mL); in the data set on Aspergillus niger, 63.1 µM (≈ 14 µg/mL); in the data set with Staphylococcus aureus, 70.8 µM (≈ 15.7 µg/mL); in the data set with Bacillus subtilis, 56.2 µM (≈ 12.5 µg/mL). In data set [1], this compound returned a logP of 3.05.
`C/C=C/C=C/C(=O)OCCCCCC`: the MIC in the data set with Candida albicans came out at 51.3 µM (≈ 10.1 µg/mL); in the data set on Aspergillus niger, 63.1 µM (≈ 12.4 µg/mL); in the data set on Staphylococcus aureus it was 100 µM (≈ 19.6 µg/mL); in the data set with Bacillus subtilis it was 63.1 µM (≈ 12.4 µg/mL). Also, the log partition coefficient (logP) in data set [1] came to 3.5.
As for `C/C=C/C=C/C(=O)Nc1cccc([N+](=O)[O-])c1`, the MIC in the data set on Escherichia coli turned out to be 60.3 µM (≈ 14 µg/mL); in the data set with Candida albicans, 47.9 µM (≈ 11.1 µg/mL); with Aspergillus niger it was 39.8 µM (≈ 9.24 µg/mL); in the data set with Staphylococcus aureus, 50.1 µM (≈ 11.6 µg/mL); in the data set on Bacillus subtilis it was 34.7 µM (≈ 8.06 µg/mL). The compound further displayed a logP in data set [1] of 2.49.
As for `C/C=C/C=C/C(=O)OCC`, the MIC is 77.6 µM (≈ 10.9 µg/mL) with Candida albicans, 100 µM (≈ 14 µg/mL) in the data set on Aspergillus niger and 89.1 µM (≈ 12.5 µg/mL) in the data set with Bacillus subtilis. In data set [1], this compound returned a lipophilicity (logP) of 1.84.
Turning to `C/C=C/C=C/C(=O)Nc1ccc([N+](=O)[O-])cc1`, the MIC in the data set on Escherichia coli came to 60.3 µM (≈ 14 µg/mL); with Candida albicans, 53.7 µM (≈ 12.5 µg/mL); in the data set with Aspergillus niger, 53.7 µM (≈ 12.5 µg/mL); with Staphylococcus aureus it was 60.3 µM (≈ 14 µg/mL); in the data set on Bacillus subtilis, 38.9 µM (≈ 9.03 µg/mL). The same compound yielded a logP in data set [1] of 2.49.
For `C/C=C/C=C/C(=O)NCCC`, the MIC came out at 81.3 µM (≈ 12.5 µg/mL) in the data set with Candida albicans, 100 µM (≈ 15.3 µg/mL) with Aspergillus niger, 100 µM (≈ 15.3 µg/mL) in the data set on Staphylococcus aureus and 72.4 µM (≈ 11.1 µg/mL) in the data set on Bacillus subtilis. In data set [1], this compound returned a logP of 1.66.
Turning to `C/C=C/C=C/C(=O)Nc1ccc(Cl)cc1`, the MIC in the data set with Escherichia coli was determined as 72.4 µM (≈ 16.1 µg/mL); in the data set on Candida albicans, 50.1 µM (≈ 11.1 µg/mL); in the data set on Aspergillus niger it was 50.1 µM (≈ 11.1 µg/mL); in the data set on Staphylococcus aureus, 63.1 µM (≈ 14 µg/mL); with Bacillus subtilis, 44.7 µM (≈ 9.91 µg/mL). Besides, in data set [1], the log partition coefficient (logP) turned out to be 3.05.
In the case of `C/C=C/C=C/C(=O)Nc1cccc(Cl)c1`, the MIC in the data set on Escherichia coli is 72.4 µM (≈ 16.1 µg/mL); in the data set on Candida albicans, 50.1 µM (≈ 11.1 µg/mL); in the data set on Aspergillus niger, 39.8 µM (≈ 8.82 µg/mL); in the data set on Staphylococcus aureus it was 63.1 µM (≈ 14 µg/mL); in the data set on Bacillus subtilis, 50.1 µM (≈ 11.1 µg/mL). In data set [1], this compound gave a logP of 3.05.
For the compound `C=CCOC(=O)/C=C/C=C/C`, the minimum inhibitory concentration (MIC) was 81.3 µM (≈ 12.4 µg/mL) in the data set on Candida albicans, 79.4 µM (≈ 12.1 µg/mL) in the data set with Aspergillus niger and 79.4 µM (≈ 12.1 µg/mL) in the data set with Bacillus subtilis. Also, the lipophilicity (logP) in data set [1] is 2.24.
As to `C/C=C/C=C/C(=O)OCCCCCCC`, the MIC in the data set with Escherichia coli turned out to be 79.4 µM (≈ 16.7 µg/mL); with Candida albicans it was 58.9 µM (≈ 12.4 µg/mL); in the data set on Aspergillus niger it was 58.9 µM (≈ 12.4 µg/mL); in the data set on Staphylococcus aureus it was 58.9 µM (≈ 12.4 µg/mL); in the data set with Bacillus subtilis it was 50.1 µM (≈ 10.5 µg/mL). In data set [1], the logP stood at 3.9.
Turning to `C/C=C/C=C/C(=O)NN`, the MIC in the data set with Candida albicans and in the data set on Bacillus subtilis was 100 µM (≈ 12.6 µg/mL) in each case. The logP in data set [1] was 0.59.
Take `C/C=C/C=C/C(=O)OCC(C)C`: the MIC in the data set with Candida albicans turned out to be 74.1 µM (≈ 12.5 µg/mL); in the data set on Aspergillus niger, 63.1 µM (≈ 10.6 µg/mL); with Staphylococcus aureus, 100 µM (≈ 16.8 µg/mL); with Bacillus subtilis, 74.1 µM (≈ 12.5 µg/mL). In addition, the logP in data set [1] is 2.71.
For the compound `C/C=C/C=C/C(=O)Nc1ccc(Br)cc1`, the MIC with Escherichia coli came out at 79.4 µM (≈ 21.1 µg/mL); in the data set with Candida albicans it was 46.8 µM (≈ 12.5 µg/mL); with Aspergillus niger, 50.1 µM (≈ 13.3 µg/mL); in the data set with Staphylococcus aureus it was 37.2 µM (≈ 9.9 µg/mL); in the data set on Bacillus subtilis, 47.9 µM (≈ 12.7 µg/mL). In data set [1], this compound gave a logP of 3.32.
Turning to `C/C=C/C=C/C(=O)O` [SORBIC ACID], the logP in data set [1] is 1.47.
